Reference: US8759363B2, “Quinazoline-based T cell proliferation inhibitors” (Yissum Research Development Company of the Hebrew …, priority 2010, dated 2014)

Legend:
Jurkat cells = test: Jurkat cell proliferation, BrdU incorporation; type: cell-based, human; conditions: for IC50: Homo sapiens, Jurkat, BrdU uptake, nM ± SD, read-out: IC50 Jurkat cells proliferation inhibition; for fold increase in the IC50 of Jurkat cell proliferation compared with compound 2: relative to compound 2
Description: (§1) Cells were depleted of fetal calf serum (FCS) for 12 hours. They were then stimulated to proliferate by addition of ConA (10 μg/ml) for PBMC from healthy individuals and for Jurkat cells, FCS (10%) for HEK293 and A375 cells, PDGF (30 ng/ml) for NIH 3T3 cells, and EGF (30 ng/ml) for MDA-MB-231, Cells (1×10^5) were cultured in 96-well plates for 3 days in the presence or absence of inhibitors at the concentrations specified in the text. Each condition was tested in duplicate wells.
(§2) Proliferation was assessed by BrdU incorporation using a colorimetric ELISA kit (Roche, Germany). Subsequent to labeling with 10 μM BrdU, DNA was denatured and the cells were incubated with anti-BrdU-POD, prior to the addition of colorimetric substrate (TMB). The reaction product was quantified by measuring absorbance at 450 nm in an ELISA plate reader (ELx800 BIO-TEK Instruments Inc.).
(§3) Since we were not prejudiced towards any specific protein kinase, we used a biological assay for T cell proliferation. We tested our libraries for inhibition of proliferation of PBMC and Jurkat cells (Table 3). Cell proliferation was measured by BrdU uptake. […] PBMC cells were stimulated by a non-specific T cell mitogen, Concanavalin A (ConA). All of the compounds that were tested inhibited proliferation at micromolar or sub-micromolar concentrations.

PBMC = PBMC proliferation, BrdU incorporation; type: cell-based, human; conditions: for IC50: Homo sapiens, ConA-stimulated PBMC, BrdU uptake, nM ± SD, read-out: IC50 PBMC proliferation inhibition; for fold increase in the IC50 of PBMC proliferation compared with compound 2: relative to compound 2
Description: Blood samples were taken from healthy donors and loaded on a Ficoll density gradient to purify the PBMC population. T cells were purified by human anti-CD3 using an autoMACS instrument (Miltenyi Biotec, Bergisch-Gladbach, Germany), according to the manufacturer's instructions. The identity of T cells was confirmed by flow cytometry, as they stained positive for CD3. Cells were stimulated with ConA (10 μg/ml), ODN2006 (0.5 μg/ml; Enzo Life Sciences), or LPS (50 μg/ml; Sigma-Aldrich, Steinheim, Germany), for 72 h in the presence of the inhibitor, and their proliferation was measured in the BrdU incorporation assay as will be later described.
as §1, §2, §3

Row | Structure (SMILES) | IC50 (Jurkat cells) | melting point | IC50 (PBMC) | fold increase in the IC50 of Jurkat cell proliferation compared with compound 2 (Jurkat cells) | fold increase in the IC50 of PBMC proliferation compared with compound 2 (PBMC)
1 | COc1cc(-c2nc(Nc3ccc4nc[nH]c4c3)c3ccccc3n2)cc(OC)c1OC [Compound 19, N-(3H-benzoimidazol-5-yl)-2-(3,4,5-trimethoxyphenyl)quinazolin-4-amine] | 1500 ± 0.71 nM | > 250 °C | 430 ± 0.11 nM |  | 
2 | Oc1cc(-c2nc(NCc3ccccc3)c3ccccc3n2)cc(O)c1O [Compound 29, 5-(4-(benzylamino)quinazolin-2-yl)benzene-1,2,3-triol] | 950 ± 0.07 nM | > 250 °C | 7000 ± 3.5 nM |  | 
3 | COc1cc(-c2nc(NCc3ccc(F)c(F)c3)c3ccccc3n2)cc(OC)c1OC [Compound 12, N-(3,4-difluorobenzyl)-2-(3,4,5-trimethoxyphenyl)quinazolin-4-amine] | 730 ± 0.39 nM | > 250 °C | 200 nM |  | 
4 | COc1cc(-c2nc(Nc3ccc(O)cc3)c3ccccc3n2)cc(OC)c1OC [Compound 4, 4-(2-(3,4,5-trimethoxyphenyl)quinazolin-4-ylamino)phenol] | 230 ± 0.04 nM | > 250 °C | 300 ± 0.14 nM |  | 
5 | Oc1cc(-c2nc(Nc3ccc4nc[nH]c4c3)c3ccccc3n2)cc(O)c1O [Compound 38, 5-(4-(3H-benzo[d]imidazol-5-ylamino)quinazolin-2-yl)benzene-1,2,3-triol] | 2570 ± 0.82 nM | > 250 °C | 4340 ± 0.74 nM |  | 
6 | Oc1cc(-c2nc(Nc3ccc4c(c3)OCO4)c3ccccc3n2)cc(O)c1O [Compound 37, 5-(4-(benzo[d][1,3]dioxol-5-ylamino)quinazolin-2-yl)benzene-1,2,3-triol] | 800 ± 0.28 nM | > 250 °C | 5500 ± 6.36 nM |  | 
7 | Oc1cc(-c2nc(Nc3ccc(Cl)cc3)c3ccccc3n2)cc(O)c1O [Compound 27, 5-(4-(4-chlorophenylamino)quinazolin-2-yl)benzene-1,2,3-triol] | 4250 ± 5.3 nM | > 250 °C | 550 ± 0.21 nM |  | 
8 | Oc1cc(-c2nc(Nc3ccccc3)c3ccccc3n2)cc(O)c1O [Compound 20, 5-(4-(phenylamino)quinazolin-2-yl)benzene-1,2,3-triol] | 5500 ± 3.5 nM | > 250 °C | 650 ± 0.49 nM |  | 
9 | Oc1cc(-c2nc(NCc3ccc(F)c(F)c3)c3ccccc3n2)cc(O)c1O [Compound 31, 5-(4-(3,4-difluorobenzylamino)quinazolin-2-yl)benzene-1,2,3-triol] | 600 ± 0.21 nM | > 250 °C | 280 ± 0.04 nM |  | 
10 | COc1ccc(Nc2nc(-c3cc(O)c(O)c(O)c3)nc3ccccc23)cc1 [Compound 24, 5-(4-(4-methoxyphenylamino)quinazolin-2-yl)benzene-1,2,3-triol] | 550 ± 0.21 nM | > 250 °C | 500 ± 0.14 nM |  | 
11 | COc1cc(-c2nc(Nc3ccccc3CO)c3ccccc3n2)cc(OC)c1OC [Compound 9, (2-(2-(3,4,5-trimethoxyphenyl)quinazolin-4-ylamino)phenyl)methanol] | 580 ± 0.18 nM | > 250 °C | 850 ± 0.07 nM |  | 
12 | COc1ccc(CNc2nc(-c3cc(O)c(O)c(O)c3)nc3ccccc23)cc1 [Compound 33, 5-(4-(4-methoxybenzylamino)quinazolin-2-yl)benzene-1,2,3-triol] | 5430 ± 0.76 nM | > 250 °C | 3260 ± 0.49 nM |  | 
13 | Oc1cc(-c2nc(NCc3ccc(Cl)c(Cl)c3)c3ccccc3n2)cc(O)c1O [Compound 32, 5-(4-(3,4-dichlorobenzylamino)quinazolin-2-yl)benzene-1,2,3-triol] | 3640 ± 0.54 nM | > 250 °C | 2600 ± 0.24 nM |  | 
14 | COc1cc(-c2nc(NCc3ccccc3)c3ccccc3n2)cc(OC)c1OC [Compound 10, N-benzyl-2-(3,4,5-trimethoxyphenyl)quinazolin-4-amine] | 600 ± 0.14 nM | > 250 °C | 3250 ± 2.47 nM |  | 
15 | Oc1cc(-c2nc(NCCc3c[nH]c4ccccc34)c3ccccc3n2)cc(O)c1O [Compound 36, 5-(4-(2-(1H-indol-3-yl)ethylamino)quinazolin-2-yl)benzene-1,2,3-triol] | 1970 ± 0.74 nM | > 250 °C | 1240 ± 0.74 nM |  | 
16 | COc1cc(-c2nc(Nc3ccc(Cl)cc3)c3ccccc3n2)cc(OC)c1OC [Compound 8, N-(4-chlorophenyl)-2-(3,4,5-trimethoxyphenyl)quinazolin-4-amine] | 530 ± 0.32 nM | > 250 °C | 300 ± 0.05 nM |  | 
17 | COc1cc(-c2nc(Nc3ccc4c(c3)OCO4)c3ccccc3n2)cc(OC)c1OC [Compound 18, N-(benzo[d][1,3]dioxol-5-yl)-2-(3,4,5-trimethoxyphenyl) quinazolin-4-amine] | 600 nM | > 250 °C | 380 ± 0.04 nM |  | 
18 | Oc1ccc(Nc2nc(-c3cc(O)c(O)c(O)c3)nc3ccccc23)cc1 [Compound 23, 5-(4-(4-hydroxyphenylamino)quinazolin-2-yl)benzene-1,2,3-triol] | 1120 ± 0.28 nM |  | 970 ± 0.84 nM |  | 
19 | COc1cc(-c2nc(Nc3ccc(C)cc3C)c3ccccc3n2)cc(OC)c1OC [Compound 3, N-(2,4-dimethylphenyl)-2-(3,4,5-trimethoxyphenyl)quinazolin-4-amine] | 2600 ± 3.39 nM | > 250 °C | 750 ± 0.05 nM | 10 fold | 10 fold
20 | COc1cc(-c2nc(Nc3ccccc3)c3ccccc3n2)cc(OC)c1OC [Compound 1, N-phenyl-2-(3,4,5-trimethoxyphenyl)quinazolin-4-amine] | 380 ± 0.18 nM | > 250 °C | 280 ± 0.04 nM | 10 fold | 3 fold
21 | Cc1ccc(Nc2nc(-c3cc(O)c(O)c(O)c3)nc3ccccc23)c(C)c1 [Compound 22, 5-(4-(2,4-dimethylphenylamino)quinazolin-2-yl)benzene-1,2,3-triol] | 3700 ± 4.67 nM | > 250 °C | 730 ± 0.04 nM |  | 
22 | Oc1cc(-c2nc(Nc3ccc(OC(F)(F)F)cc3)c3ccccc3n2)cc(O)c1O [Compound 26, 5-(4-(4-(trifluoromethoxy)phenylamino)quinazolin-2-yl)benzene-1,2,3-triol] | 3240 ± 0.31 nM | > 250 °C | 2780 ± 0.26 nM |  | 
23 | COc1cc(-c2nc(Nc3ccc(OC(F)(F)F)cc3)c3ccccc3n2)cc(OC)c1OC [Compound 7, N-(4-(trifluoromethoxy)phenyl)-2-(3,4,5-trimethoxyphenyl) quinazolin-4-amine] | 180 ± 0.11 nM | > 250 °C | 400 nM | 6 fold | 5 fold
24 | COc1cc(-c2nc(Nc3ccc4cn[nH]c4c3)c3ccccc3n2)cc(OC)c1OC [Compound 15, N-(1H-indazol-6-yl)-2-(3,4,5-trimethoxyphenyl) quinazolin-4-amine] | 600 ± 0.14 nM | > 250 °C | 450 ± 0.07 nM |  | 
25 | Oc1cc(-c2nc(Nc3ccc4[nH]ncc4c3)c3ccccc3n2)cc(O)c1O [Compound 35, 5-(4-(1H-indazol-5-ylamino)quinazolin-2-yl)benzene-1,2,3-triol] | 710 ± 0.87 nM | > 250 °C | 780 ± 0.67 nM |  | 
26 | Nc1ccc(CNc2nc(-c3cc(O)c(O)c(O)c3)nc3ccccc23)cc1 [Compound 30, 5-(4-(4-aminobenzylamino)quinazolin-2-yl)benzene-1,2,3-triol] | 670 ± 0.22 nM | > 250 °C | 570 ± 0.24 nM |  | 
27 | COc1cc(-c2nc(NCc3ccc(Cl)c(Cl)c3)c3ccccc3n2)cc(OC)c1OC [Compound 13, N-(3,4-dichlorobenzyl)-2-(3,4,5-trimethoxyphenyl)quinazolin-4-amine] | 730 ± 0.39 nM |  | 300 ± 0.14 nM |  | 
28 | CCCCCCCCOc1ccc(Nc2nc(-c3cc(OC)c(OC)c(OC)c3)nc3ccccc23)cc1 [Compound 6, N-(4-(octyloxy)phenyl)-2-(3,4,5-trimethoxyphenyl)quinazolin-4-amine] | 850 ± 0.07 nM |  | 2400 ± 2.26 nM |  | 
29 | Oc1cc(-c2nc(Nc3ccc4cn[nH]c4c3)c3ccccc3n2)cc(O)c1O [Compound 34, 5-(4-(1H-indazol-6-ylamino)quinazolin-2-yl)benzene-1,2,3-triol] | 690 ± 0.3 nM |  | 500 ± 0.14 nM |  | 
30 | COc1ccc(CNc2nc(-c3cc(OC)c(OC)c(OC)c3)nc3ccccc23)cc1 [Compound 14, N-(4-methoxybenzyl)-2-(3,4,5-trimethoxyphenyl)quinazolin-4-amine] | 1100 ± 0.14 nM |  | 500 ± 0.14 nM |  | 
